Measured values as given in EP0013144A1, “Substituted diphenylamine derivatives, compositions and herbicidal uses thereof, and processes for their preparation” (ICI AUSTRALIA LIMITED, priority 1978, dated 1980).

How the values were obtained:
Format in all cases: in vivo
Wheat [1] = assay: Post-emergence herbicidal activity (Example 32); parameters: key: 0-3 scale: 0 = 0-25% damage, 3 = 75-99% kill, 3+ = 100% kill; details: 3 weeks after spraying
Method: (§1) Concentrated formulations of the compounds of the invention were prepared by: • a) in the case of oils and waxy solids, dissolving the compound in toluene containing 7% v/v "Teric" N13 ("Teric" is a Trade MarK and "Teric" N13, a product of ethoxylation of nonylphenol, is available from ICI Australia Limited) and 3% v/v "Kemmat" SC15B ("Kemmat" is a Trade Mark and "Kemmat" SC15B is a formulation of calcium dodecylbenzene sulfonate); or • b) in the case of crystalline solids, adding 5 parts by weight of the compound and 1 part by weight of . ''Dyapol" PT ("Dyapol" is a Trade Mark and "Dyapol" PT is an anionic suspending agent) to 94 parts by weight of an aqueous solution containing 0.25% v/v of "Teric" N8 (a product of ethoxylation of nonylphenol) and ball-milling the mixture to produce a stable suspension. The emulsifiable concentrates and suspensions were then diluted with water to give an aqueous composition of the required concentration suitable for use in the evaluation of the pre-emergence and post-emergence herbicidal activity of the compounds of the invention.
(§2) The post-emergent herbicidal activity of the compounds of the invention formulated as described in Example 30 was assessed by the following procedure.
(§3) The seeds of the test species were sown in rows 2 cm deep in soil contained in seed boxes. The monocotyledonous plants and the dicotyledonous plants were sown in separate seed boxes in duplicate. The four seed boxes were placed in a glasshouse, lightly watered with an overhead spray to initiate germination and then sub-irrigated as required for optimum plant growth. After the plants had grown to a height of about 10 to 12.5 cm one box of each of the monocotyledonous plants and the dicotyledonous plants was removed from the glasshouse and sprayed with the required quantity of a composition of the invention. After spraying the boxes were returned to the glasshouse for further 3 weeks and the effects of the treatment was visually assessed by comparison with the untreated controls. The results are presented in Table 4 where the damage to plants is rated on a scale of from 0 to 3 where 0 represents 0 to 25% damage, 3 represents 75 to 99% kill and 3+ represents 100% kill. A dash (-) means that no experiment was carried out.

Sunflower [2] = assay: Post-emergence herbicidal activity (Example 32); details: 3 weeks after spraying
Method: as §1, §2, §3

Japanese millet [3] = assay: Post-emergence herbicidal activity (Example 32); details: 3 weeks after spraying
Method: as §1, §2, §3

Ipomea [4] = assay: Post-emergence herbicidal activity (Example 32); details: 3 weeks after spraying
Method: as §1, §2, §3

Ryegrass [5] = assay: Post-emergence herbicidal activity (Example 32); details: 3 weeks after spraying
Method: as §1, §2, §3

Wild Oats = assay: Post-emergence herbicidal activity (Example 32); details: 3 weeks after spraying
Method: as §1, §2, §3

Mustard [6] = assay: Post-emergence herbicidal activity (Example 32); details: 3 weeks after spraying
Method: as §1, §2, §3

Sunflower [7] = assay: Pre-emergence herbicidal activity (Example 31); details: after three weeks
Method: as §1
(§4) The pre-emergent herbicidal activity of the compounds of the invention formulated as described in Example 30 was assessed by the following procedure.
(§5) The seeds of the test species were sown in rows 2 cm deep in soil contained in seed boxes. The monocotyledonous plants and the dicotyledonous plants were sprayed with the required quantity of a composition of the invention. Two duplicate seed Doxes were prepared in the same manner but were not sprayed with a composition of the invention and were used for comparison purposes. All the boxes were placed in a glasshouse, lightly watered with an overhead spray to initiate germination and then sub-irrigated as required for optimum plant growth. After three weeks the boxes were removed from the glasshouse and the effect of the treatment was visually assessed. The results are presented in Table 3 where the damage to plants is rated on a scale of from 0 to 3 where 0 represents from 0 to 25% damage, 3 represents 75 to 99% kill and 3+ represents 100% kill.
(§6) A dash (-) means that no experiment was carried out.

Japanese millet [8] = assay: Pre-emergence herbicidal activity (Example 31); details: after three weeks
Method: as §1, §4, §5, §6

Ipomea [9] = assay: Pre-emergence herbicidal activity (Example 31); details: after three weeks
Method: as §1, §4, §5, §6

Mustard [10] = assay: Pre-emergence herbicidal activity (Example 31); details: after three weeks
Method: as §1, §4, §5, §6

Wheat [11] = assay: Pre-emergence herbicidal activity (Example 31); parameters: key: 0-3 scale: 0 = 0-25% damage, 3 = 75-99% kill, 3+ = 100% kill; details: after three weeks
Method: as §1, §4, §5, §6

Ryegrass [12] = assay: Pre-emergence herbicidal activity (Example 31); parameters: key: 0-3 scale: 0 = 0-25% damage, 3 = 75-99% kill, 3+ = 100% kill; details: after three weeks
Method: as §1, §4, §5, §6

Structure (SMILES)	damage to plants, Wh (Wheat [1]; 5 kg/ha)	damage to plants, Sf (Sunflower [2]; 5 kg/ha)	damage to plants, Jm (Japanese millet [3]; 5 kg/ha)	damage to plants, Ip (Ipomea [4]; 5 kg/ha)	damage to plants, Rg (Ryegrass [5]; 5 kg/ha)	damage to plants, Ot (Wild Oats; 5 kg/ha)	damage to plants, Ms (Mustard [6]; 5 kg/ha)	damage to plants, Wh (Wheat [1]; 1 kg/ha)	damage to plants, Sf (Sunflower [2]; 1 kg/ha)	damage to plants, Jm (Japanese millet [3]; 1 kg/ha)	damage to plants, Ip (Ipomea [4]; 1 kg/ha)	damage to plants, Rg (Ryegrass [5]; 1 kg/ha)	damage to plants, Ot (Wild Oats; 1 kg/ha)	damage to plants, Ms (Mustard [6]; 1 kg/ha)	damage to plants, Sf (Sunflower [7]; 1 kg/ha)	damage to plants, Sf (Sunflower [7]; 5 kg/ha)	damage to plants, Ip (Ipomea [9]; 1 kg/ha)	damage to plants, Ip (Ipomea [9]; 5 kg/ha)	damage to plants, Ms (Mustard [10]; 1 kg/ha)	damage to plants, Ms (Mustard [10]; 5 kg/ha)	other results
COC(=O)C(C)Oc1ccc(N(C)c2ccc(C(F)(F)F)cc2)cc1 (stereo not shown) [Compound 14, Methyl 2-[4-(4-trifluoromethyl-N-methylanilino)phenoxy]-propionate]	0 (0 represents 0 to 25% damage)	2	3 (3 represents 75 to 99% kill)	3+ (3+ represents 100% kill)	0 (0 represents 0 to 25% damage)	0 (0 represents 0 to 25% damage)	3+ (3+ represents 100% kill)														
COC(=O)C(C)Oc1ccc(Nc2ccccc2[N+](=O)[O-])cc1 (stereo not shown) [Compound 25]																					damage to plants, Wh (Wheat [1]; 10 kg/ha): 3 (3 represents 75 to 99% kill); damage to plants, Sf (Sunflower [2]; 10 kg/ha): 0 (0 represents 0 to 25% damage); damage to plants, Jm (Japanese millet [3]; 10 kg/ha): 3+ (3+ represents 100% kill); damage to plants, Ip (Ipomea [4]; 10 kg/ha): 0 (0 represents 0 to 25% damage); damage to plants, Rg (Ryegrass [5]; 10 kg/ha): 3+ (3+ represents 100% kill); damage to plants, Ot (Wild Oats; 10 kg/ha): 3 (3 represents 75 to 99% kill); damage to plants, Ms (Mustard [6]; 10 kg/ha): 0 (0 represents 0 to 25% damage); damage to plants, Sf (Sunflower [7]; 10 kg/ha): 0 (0 represents from 0 to 25% damage); damage to plants, Jm (Japanese millet [8]; 10 kg/ha): 3 (3 represents 75 to 99% kill); damage to plants, Ip (Ipomea [9]; 10 kg/ha): 0 (0 represents from 0 to 25% damage); damage to plants, Ms (Mustard [10]; 10 kg/ha): 0 (0 represents from 0 to 25% damage); damage to plants, Wh (Wheat [11]; 10 kg/ha): 1; damage to plants, Rg (Ryegrass [12]; 10 kg/ha): 3+ (3+ represents 100% kill)
COC(=O)C(C)Oc1ccc(Nc2ccc(C)cc2[N+](=O)[O-])cc1 (stereo not shown) [Compound 26]	3 (3 represents 75 to 99% kill)	0 (0 represents 0 to 25% damage)	3+ (3+ represents 100% kill)	0 (0 represents 0 to 25% damage)	3 (3 represents 75 to 99% kill)	1	0 (0 represents 0 to 25% damage)	2	0 (0 represents 0 to 25% damage)	3 (3 represents 75 to 99% kill)	0 (0 represents 0 to 25% damage)	3 (3 represents 75 to 99% kill)	1	0 (0 represents 0 to 25% damage)	0 (0 represents from 0 to 25% damage)	0 (0 represents from 0 to 25% damage)	0 (0 represents from 0 to 25% damage)	0 (0 represents from 0 to 25% damage)	0 (0 represents from 0 to 25% damage)	0 (0 represents from 0 to 25% damage)	damage to plants, Wh (Wheat [11]; 1 kg/ha): 0 (0 represents from 0 to 25% damage); damage to plants, Wh (Wheat [11]; 5 kg/ha): 1; damage to plants, Rg (Ryegrass [12]; 1 kg/ha): 2; damage to plants, Rg (Ryegrass [12]; 5 kg/ha): 3+ (3+ represents 100% kill)
CC(Oc1ccc(Nc2ccc(Cl)cc2[N+](=O)[O-])cc1)C(=O)OC1CCCCC1 (stereo not shown) [Compound 79]	3 (3 represents 75 to 99% kill)	0 (0 represents 0 to 25% damage)	3+ (3+ represents 100% kill)	0 (0 represents 0 to 25% damage)	3 (3 represents 75 to 99% kill)	3 (3 represents 75 to 99% kill)	0 (0 represents 0 to 25% damage)	2	0 (0 represents 0 to 25% damage)	3+ (3+ represents 100% kill)	0 (0 represents 0 to 25% damage)	3+ (3+ represents 100% kill)	3 (3 represents 75 to 99% kill)	0 (0 represents 0 to 25% damage)	0 (0 represents from 0 to 25% damage)	0 (0 represents from 0 to 25% damage)	0 (0 represents from 0 to 25% damage)	0 (0 represents from 0 to 25% damage)	0 (0 represents from 0 to 25% damage)	0 (0 represents from 0 to 25% damage)	damage to plants, Jm (Japanese millet [8]; 1 kg/ha): 3 (3 represents 75 to 99% kill); damage to plants, Jm (Japanese millet [8]; 5 kg/ha): 3+ (3+ represents 100% kill); damage to plants, Wh (Wheat [11]; 1 kg/ha): 0 (0 represents from 0 to 25% damage); damage to plants, Wh (Wheat [11]; 5 kg/ha): 0 (0 represents from 0 to 25% damage); damage to plants, Rg (Ryegrass [12]; 1 kg/ha): 3 (3 represents 75 to 99% kill); damage to plants, Rg (Ryegrass [12]; 5 kg/ha): 3 (3 represents 75 to 99% kill)
CC(Oc1ccc(N(C)c2ccc(C(F)(F)F)cc2[N+](=O)[O-])cc1)C(=O)OC1CCCCC1 (stereo not shown) [Compound 80]	3 (3 represents 75 to 99% kill)	0 (0 represents 0 to 25% damage)	3+ (3+ represents 100% kill)	0 (0 represents 0 to 25% damage)	3+ (3+ represents 100% kill)	3+ (3+ represents 100% kill)	0 (0 represents 0 to 25% damage)	1	0 (0 represents 0 to 25% damage)	3+ (3+ represents 100% kill)	0 (0 represents 0 to 25% damage)	3 (3 represents 75 to 99% kill)	3+ (3+ represents 100% kill)	0 (0 represents 0 to 25% damage)	0 (0 represents from 0 to 25% damage)	0 (0 represents from 0 to 25% damage)	0 (0 represents from 0 to 25% damage)	0 (0 represents from 0 to 25% damage)	0 (0 represents from 0 to 25% damage)	0 (0 represents from 0 to 25% damage)	damage to plants, Wh (Wheat [11]; 1 kg/ha): 0 (0 represents from 0 to 25% damage); damage to plants, Wh (Wheat [11]; 5 kg/ha): 1; damage to plants, Rg (Ryegrass [12]; 1 kg/ha): 3 (3 represents 75 to 99% kill); damage to plants, Rg (Ryegrass [12]; 5 kg/ha): 3+ (3+ represents 100% kill)
